The experiment concerns the target T1, human PAH with the R408W mutation (Homo sapiens, UniProt P00439, R408W).
T1 construct: expressed in transfected cells
T1 sequence (P00439 1-452 R408W): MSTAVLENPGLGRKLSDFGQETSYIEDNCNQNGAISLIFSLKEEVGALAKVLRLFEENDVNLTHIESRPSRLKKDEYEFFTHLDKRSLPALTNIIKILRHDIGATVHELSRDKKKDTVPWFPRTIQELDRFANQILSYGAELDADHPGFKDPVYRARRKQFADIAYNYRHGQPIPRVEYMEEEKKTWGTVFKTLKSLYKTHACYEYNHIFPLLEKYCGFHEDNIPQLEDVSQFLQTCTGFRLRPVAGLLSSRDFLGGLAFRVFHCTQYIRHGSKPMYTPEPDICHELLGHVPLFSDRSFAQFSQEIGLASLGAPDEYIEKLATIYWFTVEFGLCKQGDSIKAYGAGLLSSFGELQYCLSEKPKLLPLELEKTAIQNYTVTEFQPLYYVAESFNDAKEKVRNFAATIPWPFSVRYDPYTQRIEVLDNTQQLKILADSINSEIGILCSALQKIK
As to the kind of experiment: Cell Based Phenylalanine Flux Assay. More on the design: scale not given here. The note with it: A375 cells expressing human R408W PAH, 13C-Tyrosine by LC-MS, average where tested multiple times.

Where [1] appears, read: 24 hrs compound incubation, read-out: AC50.
[2] abbreviates: 24 hrs with compound, read-out: AC50.

Like-named read-outs stand apart in the source and are kept apart here.

A word on the AC50: it is the concentration at which the activity in the assay is half-maximal. As for `O=C(CCc1nccs1)N1CCc2[nH]cnc2[C@H]1c1nc2ccc(Cl)cc2[nH]1` [Example 910, (S)-1-(4-(6-chloro-1H-benzo[d]imidazol-2-yl)-6,7-dihydro-1H-imidazo[4,5-c]pyridin-5(4H)-yl)-3-(thiazol-2-yl)propan-1-one], under setting [1], the AC50 fell in the range of 500 to 1000 nM.

As for `O=C(Cc1nc(C(F)(F)F)cs1)N1CCc2[nH]cnc2C1c1nc2ccc(F)cc2s1` (stereo not shown), the AC50 under setting [2] is more than 5000 nM.

Take `O=C(c1cnc(Cc2ccccc2)s1)N1CCc2[nH]cnc2[C@H]1c1nc2ccccc2s1` [Example 1227]: the AC50 under setting [1] lay in the range of 1000 to 5000 nM.

For `Cc1cccc2sc([C@@H]3c4nc[nH]c4CCN3C(=O)c3ccnn3C)nc12` [Example 2021], the AC50 under setting [1] lay within 500 to 1000 nM.

Regarding `O=C(CCc1nccs1)N1CCc2[nH]cnc2[C@H]1c1nc2ccccc2s1` [Example 1003], the half-maximal activity concentration (AC50) under setting [1] was 500 to 1000 nM.

On to `O=C(C1CC1)N1CCc2[nH]cnc2C1c1nc2ccc(Br)cc2s1` (stereo not shown), for which the AC50 under setting [2] is more than 5000 nM.

In the case of `O=C(c1nc(Cl)cs1)N1CCc2[nH]cnc2C1c1nc2c(F)cccc2s1` (stereo not shown), the AC50 under setting [2] is more than 5000 nM.

`CC(C)(O)c1nc(C(=O)N2CCc3[nH]cnc3C2c2nc3ccccc3s2)no1` (stereo not shown): under setting [2], the AC50 lay within 1000 to 5000 nM.

`O=C(c1oc(NC2CC2)nc1C(F)(F)F)N1CCc2[nH]cnc2[C@H]1c1nc2ccccc2s1` [Example 1559]: the AC50 under setting [1] is less than 500 nM.

As for `Cc1cnc(CCC(=O)N2CCc3[nH]cnc3[C@@H]2c2nc3ccccc3s2)s1` [Example 1032, (R)-1-(4-(benzo[d]thiazol-2-yl)-6,7-dihydro-1H-imidazo[4,5-c]pyridin-5(4H)-yl)-3-(5-methylthiazol-2-yl)propan-1-one], under setting [1], the AC50 was more than 5000 nM.

`O=C(c1nnc(-c2cnn(C3CCC3)c2)o1)N1CCc2[nH]cnc2[C@H]1c1nc2ccccc2s1` [Example 1828]: the AC50 under setting [1] was less than 500 nM.

As for `O=C(c1cnn2c(Br)cccc12)N1CCc2[nH]cnc2[C@H]1c1nc2ccc(F)cc2s1` [Example 1149], the AC50 under setting [1] is less than 500 nM.

In the case of `Cc1nc(C(C)(C)O)oc1C(=O)N1CC2(CC2)c2[nH]cnc2C1c1nc2ccccc2s1` (stereo not shown), under setting [2], the half-maximal activity concentration (AC50) is more than 5000 nM.

For the compound `O=C(c1cnn2cc(Cl)ccc12)N1CCc2nc[nH]c2C1c1nc2cc(F)ccc2s1` (stereo not shown), under setting [2], the AC50 was more than 5000 nM.

As to `O=C(c1oc(C2(O)CC2)nc1C(F)F)N1CCc2[nH]cnc2[C@@H]1c1nc2c(F)cccc2s1` [Example 1996, (R)-(4-(difluoromethyl)-2-(1-hydroxycyclopropyl)oxazol-5-yl)(4-(4-fluorobenzo[d]thiazol-2-yl)-6,7-dihydro-1H-imidazo[4,5-c]pyridin-5(4H)-yl)methanone], the concentration at half-maximal activity (AC50) under setting [1] lay in the range of 1000 to 5000 nM.

Take `Cc1nc(C(F)(F)F)c(C(=O)N2CCc3nc[nH]c3C2c2nc3ccccc3s2)o1` (stereo not shown): the AC50 result (24 hrs with compound) is given as “E, E”.

As for `O=C(c1nc2ccccc2s1)N1CCc2[nH]cnc2C1c1nc2ccc(F)cc2s1` (stereo not shown), the AC50 under setting [2] fell in the range of 1000 to 5000 nM.

Regarding `CC(C)(F)c1nnc(C(=O)N2CCc3[nH]cnc3[C@@H]2c2nc3c(F)cccc3s2)o1` [Example 1835, (R)-(4-(4-fluorobenzo[d]thiazol-2-yl)-6,7-dihydro-1H-imidazo[4,5-c]pyridin-5(4H)-yl)(5-(2-fluoropropan-2-yl)-1,3,4-oxadiazol-2-yl)methanone], the concentration at half-maximal activity (AC50) under setting [1] is 1000 to 5000 nM.

For `O=C(c1ocnc1C1CC1)N1CCc2[nH]cnc2[C@@H]1c1nc2c(F)cccc2s1` [Example 1496, (R)-(4-cyclopropyloxazol-5-yl)(4-(4-fluorobenzo[d]thiazol-2-yl)-6,7-dihydro-1H-imidazo[4,5-c]pyridin-5(4H)-yl)methanone], under setting [1], the AC50 was 1000 to 5000 nM.

As for `O=C(CCc1cccs1)N1CCc2[nH]cnc2C1c1nc2ccccc2[nH]1` (stereo not shown), the AC50 under setting [2] was more than 5000 nM.

For the compound `O=C(Cc1nccs1)N1CCc2[nH]cnc2C1c1nc2cccc(F)c2s1` (stereo not shown), under setting [2], the AC50 lay within 1000 to 5000 nM.

Take `O=C(CC1CC1)N1CCc2[nH]cnc2[C@@H]1c1nc2ccccc2s1` [Example 1072, (R)-1-(4-(benzo[d]thiazol-2-yl)-6,7-dihydro-1H-imidazo[4,5-c]pyridin-5(4H)-yl)-2-cyclopropylethanone]: the AC50 under setting [1] fell in the range of 1000 to 5000 nM.

(Values after patent US20250171438A1 (Agios Pharmaceuticals, Inc., priority 2022, published 2025).)
